Several values for one entry are separate records, joined by “and”; a condition that tells them apart may be missing. Equal values may be shown once.
What was measured:
Leishmania donovani = experiment: Leishmania intramacrophage assay; type: functional, organism-based; details: Leishmania donovani
Histidine--tRNA ligase = molecular target: T1, Histidine--tRNA ligase (Leishmania infantum, UniProt A4I591); experiment: Leishmania infantum Histidine tRNA synthetase (LdHisRS); type: functional
T1 sequence (A4I591 whole entry): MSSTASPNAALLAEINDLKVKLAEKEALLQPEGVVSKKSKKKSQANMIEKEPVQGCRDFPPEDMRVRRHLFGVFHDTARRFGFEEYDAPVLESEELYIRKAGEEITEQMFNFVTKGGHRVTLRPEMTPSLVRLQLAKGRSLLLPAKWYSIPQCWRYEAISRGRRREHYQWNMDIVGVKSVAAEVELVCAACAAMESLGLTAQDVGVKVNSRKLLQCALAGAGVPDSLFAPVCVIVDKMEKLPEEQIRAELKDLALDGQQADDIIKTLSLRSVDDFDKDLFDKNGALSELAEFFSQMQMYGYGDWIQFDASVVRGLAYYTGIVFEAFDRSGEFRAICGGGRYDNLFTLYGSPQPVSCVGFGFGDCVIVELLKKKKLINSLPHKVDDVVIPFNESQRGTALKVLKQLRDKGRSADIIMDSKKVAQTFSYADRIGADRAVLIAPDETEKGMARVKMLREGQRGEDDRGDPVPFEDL

[1] = microbe, parasite or virus in culture; details: Mycobacterium tuberculosis, 96 h, read-out: pIC50 (converted)
[2] = microbe, parasite or virus in culture; details: Mycobacterium tuberculosis, 72 h, read-out: pIC50 (converted)
Plasmodium falciparum = experiment: Calibr Malaria Delayed Death Assay SOP; type: functional, organism-based; details: for IC50: Plasmodium falciparum
Tryptophan--tRNA ligase = Tryptophan--tRNA ligase (Mycobacterium tuberculosis (strain ATCC 25618 / H37Rv), UniProt P9WFT3); experiment: Biochemical assay for Mt-TrpRS; type: functional
ClpP1P2 = ClpP1P2 (Mycobacterium tuberculosis (strain ATCC 25618 / H37Rv), UniProt P9WPC3+P9WPC5); experiment: in vitro assay to detect presence of AMC directly proportional to the activity of ClpP1P2. GHDDI collaboration.; type: functional
[3] = In vitro enzyme assay to detect hydrolysis of chlorophenol red-beta-D-[…] directly proportional to the number of Toxoplasma stably expressing beta-galactosidase; type: functional, organism-based, Toxoplasma gondii

CN1CCN(c2ccc3ccc(C(=O)N4CCCO4)cn23)CC1
IC50 (Leishmania donovani): > 50.1 µM

NCC1CN(c2nc(-c3ccccc3)nc3c2CCNCC3)CCO1 (stereo not drawn)
IC50 (Leishmania donovani): > 50.1 µM

FC1(F)CCN(c2ccccc2)CC12CCN(c1ncccn1)C2 (stereo not drawn)
IC50 (Leishmania donovani): > 50.1 µM

CCCc1ccc(OC23CCCN(CC2)C3)c(OC)c1 (stereo not drawn)
IC50 (Histidine--tRNA ligase): 38 µM and 39.5 µM
IC50 [1]: 22.7 µM
IC50 [2]: 23.5 µM

CN(C)C(=O)CNC(=O)c1ccc2ccc(N(C)CC3CC3)n2c1
IC50 (Leishmania donovani): > 50.1 µM

O=C(CCC1CCCC1)N1CCC(c2ncc3c(n2)CCNC3)CC1
IC50 (Leishmania donovani): > 50.1 µM

CCOc1ccc(Cl)cc1CNCCCn1ccnc1
IC50 (Leishmania donovani): 38.5 µM

CCn1nccc1CN(C)C(=O)Cn1cc2c(n1)c(C)nn2CC
IC50 (Leishmania donovani): > 50.1 µM

COCCN1CCN(c2ccc3ccc(C(=O)NC4CC4)cn23)CC1
IC50 (Leishmania donovani): > 50.1 µM

COc1ccc(OCc2sc(C3(O)CCCNCC3)nc2C)cc1 (stereo not drawn)
IC50 (Leishmania donovani): > 50.1 µM

Cc1sc2nc(C(F)(F)F)nc(N3CCCN(C)CC3)c2c1C
IC50 (Leishmania donovani): 46.2 µM

CCn1cc(-c2cc(C(F)F)nc3sc(C(N)=O)c(N)c23)c(C)n1
IC50 (Leishmania donovani): > 50.1 µM

CC(=O)NC1CCCN(Cc2csc(-c3ncccn3)n2)C1 (stereo not drawn)
IC50 (Leishmania donovani): > 50.1 µM

OCCN1CCC(F)(F)C2(CCN(c3cccnc3)C2)C1 (stereo not drawn)
IC50 (Leishmania donovani): > 50.1 µM

CNC(=O)[C@@H]1C[C@H]2CN(Cc3ccco3)C[C@H]2N1C
IC50 (Leishmania donovani): > 50.1 µM

c1cnc(-c2nc(CN3CCCN(Cc4cccs4)CC3)cs2)nc1
IC50 (Leishmania donovani): > 50.1 µM

COc1ccccc1C1(CNCc2cccc(C#N)c2)CCOCC1
IC50 (Histidine--tRNA ligase): 70.8 µM and 65.6 µM
pIC50 (Plasmodium falciparum): 5.883
IC50 (Plasmodium falciparum): 1.49 µM

CN(CC1CCN(c2ccccc2)C1)c1ccc(Cn2ccnc2)cn1 (stereo not drawn)
IC50 (Histidine--tRNA ligase): 91.9 µM and 98.7 µM
IC50 [1]: 27.4 µM
IC50 [2]: 27.7 µM

COc1ccccc1C(=O)NC(c1ccccn1)[C@H]1CC[C@H](CN)CC1 (stereo partly drawn)
IC50 (Tryptophan--tRNA ligase): > 195 µM
IC50 (Histidine--tRNA ligase): 9.74 µM and 9.59 µM

COc1cccn(CC(=O)N(C)CCC2CCOCC2)c1=O
IC50 (Histidine--tRNA ligase): > 100 µM
IC50 [1]: > 50.1 µM

CCC[C@@H]1CN(C(=O)c2cc3ccccc3cc2O)C[C@H]1N(C)C
IC50 (Histidine--tRNA ligase): 38 µM and 45 µM
IC50 (ClpP1P2): > 100 µM

c1ccc(Oc2cccc(OC34CCCN(CC3)C4)c2)cc1 (stereo not drawn)
IC50 (Histidine--tRNA ligase): 53.2 µM and 46.4 µM
IC50 [1]: 15.9 µM
IC50 [2]: 18.1 µM

Fc1cccc(N2C[C@H]3CCN(c4cccnc4)C[C@H]3C2)c1
IC50 (Histidine--tRNA ligase): 40.6 µM and 35.1 µM
IC50 [1]: > 50.1 µM
IC50 [2]: 45.2 µM

CC(=O)Nc1ccc2nc(CN(C)Cc3snnc3C)ccc2c1
IC50 (Histidine--tRNA ligase): 51.3 µM and 57.2 µM
IC50 (ClpP1P2): > 100 µM

Cn1cc(-c2c(C#N)c(N)nc3c2CCc2[nH]ccc2-3)cc1C#N
IC50 (Histidine--tRNA ligase): 28 µM and 21.7 µM
IC50 (ClpP1P2): > 100 µM

Cc1[nH]/c(=N\C(=O)c2csc(NC3CCCC3)n2)sc1C
pIC50 [3]: 5.387
IC50 ([3]; Toxoplasma gondii): 3.16 µM
IC50 (Histidine--tRNA ligase): 18 µM and 18.2 µM
IC50 [1]: > 50.1 µM
IC50 [2]: 19.8 µM

Cc1ccc(S(=O)(=O)N2CCc3nc(C4CCNCC4)ncc3C2)cc1
IC50 (Histidine--tRNA ligase): > 100 µM and 97.1 µM
IC50 [1]: 6.39 µM
IC50 [2]: > 50.1 µM

CCCc1nc(N(C)CCN2CCCCCC2)c2cnn(C)c2n1
IC50 (Histidine--tRNA ligase): 41.4 µM and 39.5 µM
IC50 [1]: > 50.1 µM
IC50 [2]: 28.3 µM

Cc1nc(CN2CCc3nc(NC(C)C)nc(C)c3C2)cs1
IC50 (Histidine--tRNA ligase): 64.5 µM and 57.7 µM
IC50 [1]: > 50.1 µM
IC50 [2]: > 50.1 µM

CCCN1C[C@H]2CC[C@@H]1CN(Cc1ccc(-n3cccn3)cc1)C2
IC50 (Histidine--tRNA ligase): 33.2 µM and 35 µM
IC50 [1]: 21.4 µM
IC50 [2]: 4.84 µM

CSc1ccc(C(CN)N2CCc3sccc3C2)cc1 (stereo not drawn)
IC50 (Histidine--tRNA ligase): 73.8 µM and 73.2 µM
IC50 [1]: 24.1 µM
IC50 [2]: 27.4 µM

Cn1ccc2c(-c3cc(N4CCCCC4)ncn3)ccnc21
IC50 (Histidine--tRNA ligase): 54.3 µM and 45.7 µM
IC50 (ClpP1P2): > 100 µM

c1ccc2sc(N3CCCN(c4ncnc5c4CCNC5)CC3)nc2c1
IC50 (Histidine--tRNA ligase): 76.9 µM and 73.9 µM
pIC50 (Plasmodium falciparum): 5.791
IC50 (Plasmodium falciparum): 1.56 µM

c1ccc(Oc2ccc(OC34CCCN(CC3)C4)cc2)cc1 (stereo not drawn)
IC50 (Histidine--tRNA ligase): 39.4 µM and 40.6 µM
IC50 [1]: 40.7 µM
IC50 [2]: 23.7 µM

Cc1cc(C)n(CC(=O)N2C[C@@H]3CC[C@H](C2)N(CC2CCC2)C3)c(=O)n1
IC50 (Histidine--tRNA ligase): 16.8 µM and 12 µM
IC50 (ClpP1P2): > 100 µM

c1ccc2c(c1)CCN(c1nc(-c3ccncc3)nc3c1CCNC3)C2
IC50 (Histidine--tRNA ligase): 9.69 µM and 11.1 µM
IC50 [1]: > 50.1 µM
IC50 [2]: 49.7 µM

Clc1ccc(C2(CNC3=NCCN3)CCCCC2)cc1.I
IC50 (Histidine--tRNA ligase): 85 µM and 71.6 µM
pIC50 (Plasmodium falciparum): 6.717 and 7.044

NC(=O)C1=NC2=NS(=O)(=O)c3ccccc3N2N1Cc1ccc(Cl)cc1
IC50 (Histidine--tRNA ligase): 62.9 µM and 43.4 µM
IC50 [1]: 26.4 µM
IC50 [2]: 45.4 µM

— ChEMBL document CHEMBL3988442, “University of Dundee, Small-Polar-MMV Screening Library” (2021)
